The supplement of paper PMC10307832

Experiments:
Test in all cases: relative viability (nuclei count vs DMSO), 5 days (fraction); higher = more cells survive
ChaGo-K-1 = system: ChaGo-K-1
In short: (§1)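 Lung cancer cell lines in 1536-well plates were dosed by pin tool the day after seeding, either with one drug alone or with a fixed anchor-drug dose plus five library-drug doses (not always all listed) in √10 steps. After 5 days, cells were fixed and their nuclei stained in one step (final 0.05% Triton X-100, 1% formaldehyde, 1 ug/ml Hoechst), then counted on 4× images. Relative viability is the nuclei count in treated wells divided by that in vehicle wells. Values are medians of duplicate plates.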

EMC-BAC-2 = system: EMC-BAC-2
In short: as §1

EPLC-272H = system: EPLC-272H
In short: as §1

H3255 = system: H3255
In short: as §1

HCC-44 = system: HCC-44
In short: as §1

HCC-827 = system: HCC-827
In short: as §1

LCLC-103H = system: LCLC-103H
In short: as §1

LCLC-97TM1 = system: LCLC-97TM1
In short: as §1

NCI-H1355 = system: NCI-H1355
In short: as §1

NCI-H1395 = system: NCI-H1395
In short: as §1

NCI-H1651 = system: NCI-H1651
In short: as §1

NCI-H1793 = system: NCI-H1793
In short: as §1

NCI-H1944 = system: NCI-H1944
In short: as §1

NCI-H1993 = system: NCI-H1993
In short: as §1

NCI-H2085 = system: NCI-H2085
In short: as §1

NCI-H2087 = system: NCI-H2087
In short: as §1

NCI-H23 = system: NCI-H23
In short: as §1

NCI-H2405 = system: NCI-H2405
In short: as §1

NCI-H322M = system: NCI-H322M
In short: as §1

NCI-H520 = system: NCI-H520
In short: as §1

NCI-H650 = system: NCI-H650
In short: as §1

SK-MES-1 = system: SK-MES-1
In short: as §1

UMC-11 = system: UMC-11
In short: as §1

C[C@@H]1CN(CC(=O)Nc2ccc3c(c2)Cc2cccc(-c4cc(=O)cc(N5CCOCC5)o4)c2S3)C[C@H](C)O1 + Nc1ncn([C@H]2C[C@H](O)[C@@H](CO)O2)c(=O)n1 [Decitabine] (partner 2 µM)
relative viability (ChaGo-K-1; first compound 0.04 µM): 0.498
relative viability (ChaGo-K-1; first compound 0.1265 µM): 0.531
relative viability (ChaGo-K-1; first compound 0.4 µM): 0.56
relative viability (ChaGo-K-1; first compound 4 µM): 0.455
relative viability (EMC-BAC-2; first compound 0.04 µM): 0.887
relative viability (EMC-BAC-2; first compound 0.1265 µM): 1.05
relative viability (EMC-BAC-2; first compound 0.4 µM): 0.948
relative viability (EMC-BAC-2; first compound 4 µM): 0.827
relative viability (EPLC-272H; first compound 0.04 µM): 0.386
relative viability (EPLC-272H; first compound 0.1265 µM): 0.384
relative viability (EPLC-272H; first compound 0.4 µM): 0.394
relative viability (EPLC-272H; first compound 4 µM): 0.364
relative viability (H3255; first compound 0.04 µM): 0.682
relative viability (H3255; first compound 0.1265 µM): 0.615
relative viability (H3255; first compound 0.4 µM): 0.558
relative viability (H3255; first compound 4 µM): 0.509
relative viability (HCC-44; first compound 0.04 µM): 0.898
relative viability (HCC-44; first compound 0.1265 µM): 0.93
relative viability (HCC-44; first compound 0.4 µM): 0.972
relative viability (HCC-44; first compound 4 µM): 0.953
relative viability (HCC-827; first compound 0.04 µM): 0.355
relative viability (HCC-827; first compound 0.1265 µM): 0.362
relative viability (HCC-827; first compound 0.4 µM): 0.418
relative viability (HCC-827; first compound 4 µM): 0.382
relative viability (LCLC-103H; first compound 0.04 µM): 0.693
relative viability (LCLC-103H; first compound 0.1265 µM): 0.695
relative viability (LCLC-103H; first compound 0.4 µM): 0.697
relative viability (LCLC-103H; first compound 4 µM): 0.737
relative viability (LCLC-97TM1; first compound 0.1265 µM): 0.231
relative viability (LCLC-97TM1; first compound 0.4 µM): 0.279
relative viability (LCLC-97TM1; first compound 4 µM): 0.273
relative viability (NCI-H1355; first compound 0.04 µM): 0.389
relative viability (NCI-H1355; first compound 0.1265 µM): 0.338
relative viability (NCI-H1355; first compound 0.4 µM): 0.363
relative viability (NCI-H1355; first compound 4 µM): 0.375
relative viability (NCI-H1395; first compound 0.1265 µM): 0.763
relative viability (NCI-H1395; first compound 0.4 µM): 0.653
relative viability (NCI-H1395; first compound 4 µM): 0.752
relative viability (NCI-H1651; first compound 0.04 µM): 0.628
relative viability (NCI-H1651; first compound 0.1265 µM): 0.628
relative viability (NCI-H1651; first compound 0.4 µM): 0.585
relative viability (NCI-H1651; first compound 4 µM): 0.599
relative viability (NCI-H1793; first compound 0.04 µM): 0.536
relative viability (NCI-H1793; first compound 0.1265 µM): 0.552
relative viability (NCI-H1793; first compound 0.4 µM): 0.503
relative viability (NCI-H1793; first compound 4 µM): 0.526
relative viability (NCI-H1944; first compound 0.1265 µM): 0.438
relative viability (NCI-H1944; first compound 0.4 µM): 0.466
relative viability (NCI-H1944; first compound 4 µM): 0.457
relative viability (NCI-H1993; first compound 0.04 µM): 0.701
relative viability (NCI-H1993; first compound 0.1265 µM): 0.55
relative viability (NCI-H1993; first compound 0.4 µM): 0.566
relative viability (NCI-H1993; first compound 4 µM): 0.644
relative viability (NCI-H2085; first compound 0.04 µM): 0.564
relative viability (NCI-H2085; first compound 0.1265 µM): 0.589
relative viability (NCI-H2085; first compound 0.4 µM): 0.605
relative viability (NCI-H2085; first compound 4 µM): 0.584
relative viability (NCI-H2087; first compound 0.04 µM): 0.306
relative viability (NCI-H2087; first compound 0.1265 µM): 0.336
relative viability (NCI-H2087; first compound 0.4 µM): 0.267
relative viability (NCI-H2087; first compound 4 µM): 0.254
relative viability (NCI-H23; first compound 0.04 µM): 0.347
relative viability (NCI-H23; first compound 0.1265 µM): 0.266
relative viability (NCI-H23; first compound 0.4 µM): 0.296
relative viability (NCI-H23; first compound 4 µM): 0.334
relative viability (NCI-H2405; first compound 0.04 µM): 0.878
relative viability (NCI-H2405; first compound 0.1265 µM): 0.814
relative viability (NCI-H2405; first compound 0.4 µM): 0.728
relative viability (NCI-H2405; first compound 4 µM): 0.803
relative viability (NCI-H322M; first compound 0.04 µM): 0.526
relative viability (NCI-H322M; first compound 0.1265 µM): 0.723
relative viability (NCI-H322M; first compound 0.4 µM): 0.657
relative viability (NCI-H322M; first compound 4 µM): 0.638
relative viability (NCI-H520; first compound 0.04 µM): 0.613
relative viability (NCI-H520; first compound 0.1265 µM): 0.484
relative viability (NCI-H520; first compound 0.4 µM): 0.449
relative viability (NCI-H520; first compound 4 µM): 0.488
relative viability (NCI-H650; first compound 0.04 µM): 0.346
relative viability (NCI-H650; first compound 0.1265 µM): 0.336
relative viability (NCI-H650; first compound 0.4 µM): 0.377
relative viability (NCI-H650; first compound 4 µM): 0.341
relative viability (SK-MES-1; first compound 0.04 µM): 0.356
relative viability (SK-MES-1; first compound 0.1265 µM): 0.368
relative viability (SK-MES-1; first compound 0.4 µM): 0.433
relative viability (SK-MES-1; first compound 4 µM): 0.446
relative viability (UMC-11; first compound 0.04 µM): 0.477
relative viability (UMC-11; first compound 0.1265 µM): 0.62
relative viability (UMC-11; first compound 0.4 µM): 0.728
relative viability (UMC-11; first compound 4 µM): 0.513
